Numbered stars: 1 amine (or outer) side, 2 acyl side, 3 side chain; on linkers, the order of the positions; unused ones are H or OH. Square brackets hold non-standard residues; d marks the D form. Peptide text beside a SMILES is read from it. * marks the point of attachment. Doxorubicin(3'-N) = COc1cccc2c1C(=O)c1c(O)c3c(c(O)c1C2=O)C[C@@](O)(C(=O)CO)C[C@@H]3O[C@H]1C[C@H](N*)[C@H](O)[C@H](C)O1; X1 = O=P1(N(CCCl)CCCl)N[C@@H](N*)CCO1; Glutaryl = O=C(CCCC(=O)[*:2])[*:1]; Hyp = O=C(O)[C@@H]1C[C@@H](O)CN1; Chg = N[C@H](C(=O)O)C1CCCCC1; Suc = O=C(CCC(=O)[*:2])[*:1]
Assays:
[1] = target: T1, Prostate-specific antigen (Homo sapiens, UniProt P07288); assay: Prodrug activation assessed as PSA (unknown origin)-mediated digestion assessed as half life at 1/100 enzyme-compound molar ratio by HPLC analysis
T1 sequence (P07288 whole entry): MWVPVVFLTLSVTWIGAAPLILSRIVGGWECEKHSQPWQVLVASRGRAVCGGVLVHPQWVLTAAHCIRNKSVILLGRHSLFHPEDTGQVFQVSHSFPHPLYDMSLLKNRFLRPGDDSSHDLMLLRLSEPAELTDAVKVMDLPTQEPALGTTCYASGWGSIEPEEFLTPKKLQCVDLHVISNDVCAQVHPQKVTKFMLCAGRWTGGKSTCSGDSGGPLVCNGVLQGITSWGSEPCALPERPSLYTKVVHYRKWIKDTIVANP

[2] = target: T1, Prostate-specific antigen; assay: Prodrug activation assessed as PSA (unknown origin)-mediated digestion assessed as glutaryl-Hyp-Ala-Ser-Chg-Gln-OH level by LC-MS analysis
[3] = target: T2, Prostate-specific antigen (PSA) (Homo sapiens, UniProt P07288); assay: Drug metabolism assessed as PSA (unknown origin)-mediated digestion assessed as compound remaining after 4 hrs by HPLC analysis; format: ADME; settings: PSA (prostate-specific antigen) enzyme, read-out: Drug metabolism
T2 sequence (P07288 whole entry): T1 sequence (P07288 whole entry)

[4] = target: T2, Prostate-specific antigen (PSA); assay: Drug metabolism assessed as PSA (unknown origin)-mediated digestion assessed as compound remaining after 50 hrs by HPLC analysis; format: ADME; settings: PSA (prostate-specific antigen) enzyme, read-out: Drug metabolism

| Structure (SMILES) | t1/2 [1] [h] | Drug metabolism [2] | remaining at 4 h [3] [%] | remaining at 50 h [4] [%] |
| --- | --- | --- | --- | --- |
| CC(C)C[C@H](NC(=O)[C@H](CCCCN)NC(=O)[C@H](CO)NC(=O)[C@H](CO)NC(=O)[C@H](Cc1cnc[nH]1)NC(=O)CCC(=O)O)C(=O)N[C@@H](CCC(N)=O)C(=O)N[C@H]1CCOP(=O)(N(CCCl)CCCl)N1 (some centres not stated) (Suc-HSSKLQ-X1) | 6.5 | – | – | – |
| C[C@H](NC(=O)[C@@H]1C[C@@H](O)CN1C(=O)CCCC(=O)O)C(=O)N[C@@H](CO)C(=O)N[C@H](C(=O)N[C@@H](CCC(N)=O)C(=O)N[C@H]1CCOP(=O)(N(CCCl)CCCl)N1)C1CCCCC1 (some centres not stated) (Glutaryl-[Hyp]AS[Chg]Q-X1) | 0.917 | Active | < 10 | – |
| COc1cccc2c1C(=O)c1c(O)c3c(c(O)c1C2=O)C[C@@](O)(C(=O)CO)C[C@@H]3O[C@H]1C[C@H](NC(=O)[C@H](CC(C)C)NC(=O)[C@H](CO)NC(=O)[C@H](CCC(N)=O)NC(=O)[C@@H](NC(=O)[C@H](CO)NC(=O)[C@H](C)NC(=O)[C@@H]2C[C@@H](O)CN2C(=O)CCCC(=O)O)C2CCCCC2)[C@H](O)[C@H](C)O1 [L-377202] (Glutaryl-[Hyp]AS[Chg]QSL-{Doxorubicin(3'-N)}) | 0.5 | – | – | – |
| CC(C)C[C@H](NC(=O)[C@H](CCCCN)NC(=O)[C@H](CO)NC(=O)CCC(=O)O)C(=O)N[C@@H](CCC(N)=O)C(=O)N[C@H]1CCOP(=O)(N(CCCl)CCCl)N1 (some centres not stated) (Suc-SKLQ-X1) | 12 | – | – | < 10 |

— ChEMBL document CHEMBL3091437, “Peptide conjugates of 4-aminocyclophosphamide as prodrugs of phosphoramide mustard for selective activation by prostate-specific antigen (PSA)” (Bioorg Med Chem, 2013)
